Converted amounts (≈) assume the structure as drawn. Where no end group is shown, it is not given here.
Experiments:
[1] = system: MSSA ATCC25923; test: microbe, parasite or virus in culture
Description: (§1) The MIC values of peptides against test stains were determined by the microtiter broth dilution method. The bacteria were grown to mid-logarithmic phase and diluted to 1 × 10^5 CFU/mL. Two-fold serial dilutions of peptides were prepared with a gradient concentration of 1280, 640, 320, 160, 80, 40, 20, 10, 5, 2.5, 1.25, and 0.625 μg/mL. A total of 10 μL each serial concentration gradient peptide solutions and 90 μL bacterial suspension were added into 96-well plates. Then the plate was cultured at 37 ℃ for 16–24 h. Vancomycin was tested as control. All assays were performed in triplicate. The MIC refers to the lowest peptide concentration at which there is no visible growth of bacteria (Wiegand et al. [2008]).

[2] = system: MRSA ATCC43300; test: microbe, parasite or virus in culture
Description: as §1

[3] = system: MSSA ATCC6538; test: microbe, parasite or virus in culture
Description: as §1

[4] = system: MRSA ATCC43300; test: Time-kill curves; type: cell-based, Staphylococcus aureus; conditions: 2× MIC
Description: The time-kill curves against MRSA ATCC43300 were assayed to evaluate the pharmacodynamics of peptides. The mid-log phase bacteria were diluted to 1×10^5 CFU/mL with fresh medium. […] Finally, the mixtures were cultured at 37 °C and 250 rpm. Samples (150 μL) were taken from each flask at 0, 0.5, 1, 2, 4, 6, 8, 10, 12 and 24 h of incubation, and antimicrobial efficiency was measured by plate colony count (Yang et al. [2019]). Treatment with peptide solvent (PBS) and vancomycin at 2× MIC were used as the negative and positive control. All tests were run in triplicate.

[5] = type: physicochemical; conditions: for MIC at pH 2–10, folds of the normal condition: 3 h incubation in buffers pH 2.0–10.0, relative to MH medium
Description: (§2) The untreated peptides were used as control. […] All assays were performed in triplicate.

[6] = system: genomic DNA from MRSA ATCC43300; test: Gel retardation assay; type: binding, Staphylococcus aureus; conditions: 10 min, room temperature, 1% agarose gel
Description: To examine the interaction of peptides and MRSA genomic DNA, the gel migration experiment was performed. Genomic DNA was obtained by bacterial genome extraction kit. Different concentrations (0.625 to 20 μg/mL) of peptides and DNA were mixed and incubated for 10 min at room temperature. The migration of genomic DNA was analyzed by electrophoresis on a 1% agarose gel.

[7] = ref de la Fuente-Nunez et al. [2014]; cited from earlier work
Text: Antimicrobial peptides (AMPs) are kind of bioactive agents with multiple modes of action and appear as one of the most promising antimicrobial drug candidates (Hancock and Sahl [2006]). […] The antimicrobial activity of AMPs was mainly based on their positive charge and hydrophobic residues, which gave them the properties of bacterial cell membrane destruction (Mahlapuu et al. [2016]). Among them, a small synth ...

[8] = system: trypsin; conditions: trypsin 250 U/mg, pH 8.0, 10:1 w/w, 4 h, 37 °C; MIC against MRSA ATCC43300
Description: (§3) The pH stability of peptides was determined after 3 h incubation in 100 mM glycine-HCl buffer (pH 2.0), sodium acetate buffer (pH 4.0), sodium phosphate buffer (pH 6.0), Tris-HCl buffer (pH 8.0), or glycine-NaOH buffer (pH 10.0). Additionally, peptides were incubated in pepsin (3000 U/mg, pH 2.0) and trypsin (250 U/mg, pH 8.0) (10:1, w/w) solutions for 4 h at 37 °C, respectively. The untreated peptides were used as control. The antibacterial activity of treated peptides against MRSA ATCC43300 was determined by MIC determine assay (Yang et al. [2017]). All assays were performed in triplicate.

[9] = system: MRSA ATCC43300 biofilm; test: Inhibition of biofilm formation, crystal violet; type: cell-based, Staphylococcus aureus
Description: To evaluate the effect of peptides on the biofilm information, mid-logarithmic phase MRSA ATCC43300 (1×10^8 CFU/mL) was grown in tryptic soy broth (TSB) medium on 96-well plates at 37 °C […] in the presence (2–64 μg/mL) or absence of peptides (de Breij et al. [2018]; de Breij et al. [2016]). Subsequently, the planktonic bacteria were removed and biofilms were stained for 30 min with 0.1% crystal violet. After rinsing with PBS twice, the dye binding to the adherent bacterial cells was resolubilized in 95% ethanol (200 μL/well). Finally, absorbance was measured at 570 nm with a microplate reader. Fresh TSB medium was used as negative control.

[10] = ppGpp binding affinity by ZIC-HILIC HPLC; conditions: ppGpp 1000 μg/mL + peptide 400 μg/mL, 10 min, centrifuged, HPLC UV 260 nm; mean of triplicate; ppGpp control peak area 34904
Description: The temperature of the column is kept at 25 ℃. The ppGpp (TriLink BioTechnologies, USA) which diluted with mobile phase to a concentration of 1000 μg/mL, was used as a positive control. Then the ppGpp (1000 μg/mL) was incubated with peptides (400 μg/mL) for 10 min and centrifuged at 12000 rpm for 10 min. The ppGpp concentration of the samples was calculated by comparing the peak areas of the ppGpp standard.

[11] = Temperature stability (MIC read-out); type: physicochemical; conditions: MIC against MRSA ATCC43300
Description: as §2

[12] = system: MRSA ATCC43300; test: SEM/TEM observation of treated bacteria; type: cell-based, Staphylococcus aureus; conditions: 4× MIC, 2 h, 37 °C
Description: The bacteria were fixed with 2.5% glutaraldehyde at 4 °C overnight. For SEM, the bacterial were then dehydrated with a series of graded ethanol solutions (20%, 50%, 70%, 85%, 95% and 100%) and dried by CO2. Gold-palladium was sputtered on samples and observed on a S4800 SEM. For TEM, bacterial were post-fixed with 1% OsO4 for 1 h and then dehydrated for 7 min each time with a graded acetone series (50%, 70%, 85%, 95% and 100%). The samples were immersed in epoxy resin and embedded in capsules containing embedding medium, polymerized at 45 °C for 3 h and at 65 °C for 24 h, respectively. Ultramicrotome was used to acquire thin sections, followed by staining with 1% uranyl acetate. Images were visualized by a Hitachi H-7650 TEM (Yang et al. [2019]).

[13] = system: MRSA ATCC43300; test: qRT-PCR of ppGpp metabolism and biofilm formation related genes; type: cell-based, Staphylococcus aureus; conditions: 4× MIC, 2 h, 16s rRNA reference
Description: The ppGpp metabolism and biofilm formation related genes RSH, relP, relQ, rsbU, sigB, spA, codY, agrA and icaD were chosen in this study. Primer sequences were designed and listed in Additional file 1: Table S1. The 16s rRNA was used as a housekeeping one. […] After washing twice with PBS, the total RNA was isolated. Then cDNA was obtained followed by removing genomic DNA. Finally, real-time reverse transcription-polymerase chain reaction (qRT-PCR) was conducted as previously described. The relative expression ratios were calculated as follows: n-fold transcription = 2^−△△Ct, ∆∆Ct = ∆Ct (drug-treated)[…]∆Ct (untreated), where ∆Ct represents the difference between the cycle threshold (Ct) of the gene studied and the Ct of housekeeping 16s rRNA gene (internal control). Student’s t test was used for analyzing those PCR results (Lee et al. [2013]).

[14] = system: pepsin; conditions: pepsin 3000 U/mg, pH 2.0, 10:1 w/w, 4 h, 37 °C; MIC against MRSA ATCC43300
Description: as §3

[15] = system: MRSA ATCC43300 biofilm; test: Biofilms observed by CLSM and SEM; type: cell-based, Staphylococcus aureus; conditions: 64 μg/mL, 24 h, SYTO9/PI
Description: In order to further explore whether the formation of MRSA ATCC43300 biofilms can be inhibited by peptides, the mid-log phase bacteria were diluted to 1 × 10^8 CFU/mL with TSB medium and seeded into 24-well plates with a glass microscope slide or silicon slice in each well. A concentration of 64 μg/mL peptides were added into plates and incubated for 24 h. Planktonic bacteria were removed by washing with PBS gently. Biofilms on glass microscope slide were stained with SYTO9 and PI according to the instruction (LIVE/DEAD BacLight Bacterial Viability Kit). After incubation for 15 min, the slides were washed with PBS and the biofilms were visualized by SP8 CLSM. Biofilm on silicon slice could be observed by SEM after immobilization, dehydration, drying and coating (Yang et al. [2019]).

CN[C@H](CC(C)C)C(=O)N[C@H]1C(=O)N[C@@H](CC(N)=O)C(=O)N[C@H]2C(=O)N[C@H]3C(=O)N[C@H](C(=O)N[C@H](C(=O)O)c4cc(O)cc(O)c4-c4cc3ccc4O)[C@H](O)c3ccc(c(Cl)c3)Oc3cc2cc(c3O[C@@H]2O[C@H](CO)[C@@H](O)[C@H](O)[C@H]2O[C@H]2C[C@](C)(N)[C@H](O)[C@H](C)O2)Oc2ccc(cc2Cl)[C@H]1O [vancomycin, reference compound]
MIC ([1]; Staphylococcus aureus): 1 mg/L (≈ 0.69 µM)
MIC ([2]; Staphylococcus aureus): 1 mg/L (≈ 0.69 µM)
MIC ([3]; Staphylococcus aureus): 1 mg/L (≈ 0.69 µM)
incubation time after which bacteria rejuvenated [4]: 10 h

VRLIVAVRIWRR-NH2 [IDR-1018, reference compound]
MIC at pH 2–10, folds of the normal condition [5]: 1-4 times
concentration inhibiting migration of genomic DNA [6]: 1.25 µg/mL
MBIC100 (anti-biofilm) [7]: 2 to 10 µg/mL
MIC (antibacterial) [7]: 8 to 256 mg/L
MIC after trypsin, times of the untreated peptide [8]: 16-32 times
impact on biofilm formation ([9]; 2–64 μg/mL): nearly no impact
mean ppGpp peak area after incubation with peptide [10]: 19723
retained antibacterial activity ([11]; 100 °C for 1 h): 50%

VRLRWWRRRWRR-NH2 [1018M]
ghost bacteria (TEM) [12]: About 10%
MIC ([1]; ATCC25923): 2 mg/L
MIC ([2]; ATCC43300): 2 mg/L
MIC ([3]; ATCC6538): 1 mg/L
MIC at pH 2–10 ([5]; 3 h, pH 2): 2–4 μg/mL
MIC at pH 2–10, folds of the normal condition [5]: 1–2 folds
concentration inhibiting migration of genomic DNA [6]: 5 µg/mL
transcription of AgrA gene, times upregulated [13]: 2.595 time
MIC after trypsin, times of the untreated peptide [8]: 16-32 times
activity after treatment with pepsase [14]: 100%
decrease of percentage of biofilm ([9]; 64 μg/mL, 24 h, A570): 78.9%
biofilm formation observed by CLSM [15]: completely inhibited
mean ppGpp peak area after incubation with peptide [10]: 14255
antibacterial activity after heat exposure ([11]; 20, 40, 60, 80 or 100 °C for 1 h, triplicate): not changed
